# From ChEMBL document CHEMBL5154775, “Oxetane Promise Delivered: Discovery of Long-Acting IDO1 Inhibitors Suitable for Q3W Oral or Parenteral Dosing” (J Med Chem, 2022)
# pIC50, pKd, pKi: −log10 of the molar value.
# Key:
# [1] = molecular target: Voltage-gated inwardly rectifying potassium channel KCNH2 (Homo sapiens, UniProt Q12809); assay: Inhibition of MK-499 binding to hERG; type: toxicity
# [2] = molecular target: T1, Indoleamine 2,3-dioxygenase 1 (Homo sapiens, UniProt P14902); assay: Displacement of [3H] labeled-N-(4-Fluorophenyl)-3-(4-(4-(2-hydroxypropan-2-yl)-6-(trifluoromethyl)pyridin-3-yl)phenyl)oxetane-3-carboxamide from human IDO1 assessed as inhibition constant by radioligand binding assay
# Target sequence in this assay (P14902 whole entry): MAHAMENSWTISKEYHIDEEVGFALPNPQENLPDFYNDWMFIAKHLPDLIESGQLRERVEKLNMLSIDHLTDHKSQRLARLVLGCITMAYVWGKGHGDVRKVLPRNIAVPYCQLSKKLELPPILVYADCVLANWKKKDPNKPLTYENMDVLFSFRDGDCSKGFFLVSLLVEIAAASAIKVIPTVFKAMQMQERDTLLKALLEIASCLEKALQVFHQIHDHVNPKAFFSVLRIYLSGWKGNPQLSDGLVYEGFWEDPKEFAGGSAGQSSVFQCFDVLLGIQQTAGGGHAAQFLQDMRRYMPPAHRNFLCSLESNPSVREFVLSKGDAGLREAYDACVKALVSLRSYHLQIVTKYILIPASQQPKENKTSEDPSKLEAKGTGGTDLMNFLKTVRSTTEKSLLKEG
# [3] = Solubility of compound at pH 7; type: physicochemical; conditions: buffer
# [4] = molecular target: T1, Indoleamine 2,3-dioxygenase 1; assay: Inhibition of IDO1 in IFNgamma/LPS stimulated human whole blood assessed as unbound concentration using kynurenine/tryptophan as substrate preincubated with compound for 15 mins followed by incubation with IFNgamma/LPS for 18 hrs by LC/MS/MS analysis; type: tissue-based
# Target sequence in this assay (P14902 whole entry): as above
# Cytochrome P450 2C9 = Cytochrome P450 2C9 (Homo sapiens, UniProt P11712); assay: Inhibition of CYP2C9 (unknown origin); type: ADME
# [5] = molecular target: T1, Indoleamine 2,3-dioxygenase 1; assay: Inhibition of IDO1 in IFN gamma-stimulated human HeLa cells measured after 48 hrs by fluorescence based microplate reader assay; type: cell-based
# Target sequence in this assay (P14902 whole entry): as above
# [6] = Unbound intrinsic clearance in rat hepatocytes; type: ADME, cell-based, Hepatocyte
# [7] = molecular target: T1, Indoleamine 2,3-dioxygenase 1; assay: Displacement of [3H] labeled-N-(4-Fluorophenyl)-3-(4-(4-(2-hydroxypropan-2-yl)-6-(trifluoromethyl)pyridin-3-yl)phenyl)oxetane-3-carboxamide from human IDO1 assessed as dissociation constant by radioligand binding assay
# Target sequence in this assay (P14902 whole entry): as above
# [8] = Solubility of compound at pH 2; type: physicochemical; conditions: buffer
# [9] = Unbound intrinsic clearance in human hepatocytes; type: ADME, cell-based, Hepatocyte
# [10] = molecular target: Indoleamine 2,3-dioxygenase 1 (Mus musculus) (UniProt P28776); assay: In vivo inhibition of human IDO1 knock-in mouse CT26 cells translated in single oral gavage dosed CD1 mouse tumor model assessed as reduction in kynurenine level in plasma measured upto 24 hrs; type: functional, organism-based; conditions: dose 0.3-30 mg/kg, DDE = dose-dependent effect
# [11] = molecular target: T1, Indoleamine 2,3-dioxygenase 1; assay: Displacement of [3H] labeled-N-(4-Fluorophenyl)-3-(4-(4-(2-hydroxypropan-2-yl)-6-(trifluoromethyl)pyridin-3-yl)phenyl)oxetane-3-carboxamide from human IDO1 assessed as dissociation rate constant by radioligand binding assay
# Target sequence in this assay (P14902 whole entry, looked up): as the sequence (P14902 whole entry) above
# [12] = Oral bioavailability in Wistar Han rat using spray-dried dispersion at 1 mg/kg by LC-MS/MS analysis; type: ADME, organism-based; conditions: in vivo
# [13] = Inhibition of Sodium channel (unknown origin) current; set-up: species or system Homo sapiens
# [14] = Oral bioavailability in dog using spray-dried dispersion at 0.5 mg/kg by LC-MS/MS analysis; type: ADME, organism-based, Canis lupus familiaris; conditions: in vivo
# [15] = Half life in Wistar Han rat at 1 mg/kg, po or 0.5 mg/kg, iv by LC-MS/MS analysis; type: ADME, organism-based; conditions: in vivo
# [16] = Half life in dog at 0.5 mg/kg, po or 0.25 mg/kg, iv by LC-MS/MS analysis; type: ADME, organism-based, Canis lupus familiaris; conditions: in vivo
# [17] = molecular target: T1, Indoleamine 2,3-dioxygenase 1; assay: Displacement of [3H] labeled-N-(4-Fluorophenyl)-3-(4-(4-(2-hydroxypropan-2-yl)-6-(trifluoromethyl)pyridin-3-yl)phenyl)oxetane-3-carboxamide from human IDO1 assessed as dissociation half life by radioligand binding assay
# Target sequence in this assay (P14902 whole entry, looked up): as the sequence (P14902 whole entry) above
# [18] = Inhibition of Calcium channel (unknown origin) current; set-up: species or system Homo sapiens
# [19] = molecular target: Indoleamine 2,3-dioxygenase 1 (Mus musculus) (UniProt P28776); assay: In vivo inhibition of human IDO1 knock-in mouse CT26 cells translated in single oral gavage dosed CD1 mouse tumor model assessed as reduction in kynurenine level in tumor measured upto 24 hrs; type: functional, organism-based; conditions: dose 0.3-30 mg/kg, DDE = dose-dependent effect
# [20] = Inhibition of potassium channel (unknown origin) current; set-up: species or system Homo sapiens
# [21] = Oral bioavailability in Wistar Han rat using crystalline form of sample at 1 mg/kg by LC-MS/MS analysis; type: ADME, organism-based; conditions: in vivo
# [22] = Oral bioavailability in dog using crystalline at 0.5 mg/kg by LC-MS/MS analysis; type: ADME, organism-based, Canis lupus familiaris; conditions: in vivo
# [23] = MRT in rat; type: ADME; conditions: in vivo
# [24] = Half life in rat; type: ADME; conditions: in vivo
# [25] = Volume of distribution at steady state in rat; type: ADME; conditions: in vivo
# Sequence of Cytochrome P450 2C9 (P11712 whole entry): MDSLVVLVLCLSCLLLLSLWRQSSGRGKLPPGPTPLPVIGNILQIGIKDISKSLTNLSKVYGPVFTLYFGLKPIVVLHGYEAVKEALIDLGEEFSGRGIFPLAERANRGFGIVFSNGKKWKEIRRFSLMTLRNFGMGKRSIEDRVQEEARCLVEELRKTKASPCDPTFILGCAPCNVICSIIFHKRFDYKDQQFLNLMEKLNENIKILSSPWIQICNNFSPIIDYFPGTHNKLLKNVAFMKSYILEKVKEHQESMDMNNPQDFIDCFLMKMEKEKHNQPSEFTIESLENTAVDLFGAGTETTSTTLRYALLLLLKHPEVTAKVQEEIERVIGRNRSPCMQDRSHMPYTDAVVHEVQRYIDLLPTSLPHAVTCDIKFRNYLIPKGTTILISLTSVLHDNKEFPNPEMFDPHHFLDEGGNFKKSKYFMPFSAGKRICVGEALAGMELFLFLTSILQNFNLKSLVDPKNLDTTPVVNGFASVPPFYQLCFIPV
# Sequence of Voltage-gated inwardly rectifying potassium channel KCNH2 (Q12809 whole entry): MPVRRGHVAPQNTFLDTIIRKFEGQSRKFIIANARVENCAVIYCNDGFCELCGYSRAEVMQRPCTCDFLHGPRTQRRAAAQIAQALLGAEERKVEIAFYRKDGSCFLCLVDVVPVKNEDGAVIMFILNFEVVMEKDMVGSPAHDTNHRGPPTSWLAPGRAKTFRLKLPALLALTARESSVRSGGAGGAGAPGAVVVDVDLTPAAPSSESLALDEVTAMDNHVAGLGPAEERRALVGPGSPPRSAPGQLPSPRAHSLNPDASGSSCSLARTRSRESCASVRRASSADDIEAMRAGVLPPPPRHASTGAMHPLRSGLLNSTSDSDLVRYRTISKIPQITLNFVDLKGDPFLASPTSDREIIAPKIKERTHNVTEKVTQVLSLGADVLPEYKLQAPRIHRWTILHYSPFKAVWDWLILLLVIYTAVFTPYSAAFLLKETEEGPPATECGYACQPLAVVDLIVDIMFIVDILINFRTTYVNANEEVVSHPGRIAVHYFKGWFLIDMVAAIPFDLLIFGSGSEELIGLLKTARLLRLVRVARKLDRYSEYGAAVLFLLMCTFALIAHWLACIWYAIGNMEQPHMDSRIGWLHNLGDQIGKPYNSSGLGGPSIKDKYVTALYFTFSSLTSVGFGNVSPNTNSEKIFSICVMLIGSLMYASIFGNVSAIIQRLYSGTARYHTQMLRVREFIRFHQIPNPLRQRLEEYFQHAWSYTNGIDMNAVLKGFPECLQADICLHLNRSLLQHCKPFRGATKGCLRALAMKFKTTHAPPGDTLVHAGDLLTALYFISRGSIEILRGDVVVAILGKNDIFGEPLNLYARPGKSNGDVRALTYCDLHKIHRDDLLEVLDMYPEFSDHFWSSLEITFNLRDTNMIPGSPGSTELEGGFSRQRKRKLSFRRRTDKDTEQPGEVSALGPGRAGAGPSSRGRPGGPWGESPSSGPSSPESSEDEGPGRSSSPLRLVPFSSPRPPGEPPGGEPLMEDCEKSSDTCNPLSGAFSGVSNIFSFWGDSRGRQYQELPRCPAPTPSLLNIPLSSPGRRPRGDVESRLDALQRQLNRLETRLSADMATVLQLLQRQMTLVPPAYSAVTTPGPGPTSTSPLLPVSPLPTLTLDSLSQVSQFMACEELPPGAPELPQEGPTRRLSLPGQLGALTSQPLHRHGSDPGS
# Sequence of Indoleamine 2,3-dioxygenase 1 (Mus musculus) (P28776 whole entry, looked up): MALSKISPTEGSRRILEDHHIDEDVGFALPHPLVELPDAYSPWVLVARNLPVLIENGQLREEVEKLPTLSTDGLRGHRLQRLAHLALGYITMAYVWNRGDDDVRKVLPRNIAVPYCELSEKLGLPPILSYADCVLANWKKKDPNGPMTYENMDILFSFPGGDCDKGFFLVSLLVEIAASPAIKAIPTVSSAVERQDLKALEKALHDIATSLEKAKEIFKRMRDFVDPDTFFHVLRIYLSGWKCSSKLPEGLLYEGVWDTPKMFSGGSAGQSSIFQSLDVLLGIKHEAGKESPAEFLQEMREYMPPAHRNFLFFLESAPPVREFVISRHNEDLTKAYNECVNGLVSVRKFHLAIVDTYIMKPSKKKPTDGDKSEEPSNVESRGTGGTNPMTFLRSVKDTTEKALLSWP
SMILES,solubility [3] [µM],pIC50 [5],CL free [6] [mL/min/kg],solubility [8] [µM],CL free [9] [mL/min/kg],other results
O=C(Nc1ccc(F)cc1)C1(c2ccc(-c3cnc(C(F)(F)F)cc3CO)cc2)COC1,145,8.70,< 10,147,19,pIC50 [1]: 4.64; pKi [2]: 9.82; pIC50 [4]: 8.60; pIC50 (Cytochrome P450 2C9): 5.20; pKd [7]: 9.80
Cc1cc(C2CC2)ncc1-c1ccc(C2(C(=O)Nc3ccc(F)cc3)COC2)cc1,< 3,,6156,139,365,pIC50 [4]: 10.10
CCCNC(=O)C1(c2ccc(-c3ccncc3)cc2)CCC1,,< 5.00,,,,
CC(C)(O)c1cc(C(F)(F)F)ncc1-c1ccc(C2(C(=O)Nc3ccc(F)cc3)COC2)cc1,123,8.52,12,124,11,Activity [10]: Dde; K [11]: 4.54 10^-3/min; pKi [2]: 9.96; bioavailability [12]: 62%; pIC50 [13]: 4.40; bioavailability [14]: 50%; half-life [15]: 7.4 h; pIC50 [4]: 9.54; pIC50 (Cytochrome P450 2C9): 5.06; half-life [16]: 43 h; T1/2 [17]: 2.55 h; pIC50 [18]: 5.08; Activity [19]: Dde; pIC50 [20]: 4.92; bioavailability [21]: 27%; bioavailability [22]: 16%
CCCNC(=O)C1(c2ccc(-c3ccccn3)cc2)CCC1,,< 5.00,,,,
O=C(Nc1ccc(F)cc1)C1(c2ccc(-c3nc(C4CC4)no3)cc2)COC1,141,,971,40,4,pIC50 [1]: 4.86
O=C(Nc1ccc(F)cc1)C1(c2ccc(-c3cnc(C(F)(F)F)cc3CO)cc2)CCC1,< 2,,1658,< 2,376,pIC50 [1]: 4.92; pIC50 (Cytochrome P450 2C9): 6.04
CCCNC(=O)C1(c2ccc(NC(=O)c3cccc(Cl)c3)cc2)CCC1,,,,,,MRT [23]: 0.7 h; half-life [24]: 0.89 h; Vdss [25]: 180 L/kg
O=C(Nc1ccc(F)cc1)C1(c2ccc(-c3cnc(C(F)(F)F)cc3CO)cc2)CC(F)(F)C1,17,,< 12,16,< 6,pIC50 (Cytochrome P450 2C9): 6.09
CCCNC(=O)C1(c2ccc(-c3ccc(C)nc3)cc2)CCC1,,5.93,,,,
O=C(Nc1ccc(F)cc1)C1(c2ccc(-n3cnc(C4CC4)cc3=O)cc2)COC1,143,,,140,,pIC50 [1]: < 4.22
Cc1cc(C(F)(F)F)ncc1-c1ccc(C2(C(=O)Nc3ccc(F)cc3)COC2)cc1,< 3,,590,< 3,330,
O=C(Nc1ccc(F)cc1)C1(c2ccc(-c3ccc(C4CC4)nc3)cc2)COC1,< 3,,4361,< 3,689,pIC50 [4]: 6.42
CCCNC(=O)C1(c2ccc(-c3cccnc3)cc2)CCC1,,5.10,,,,
O=C(Nc1ccc(C2(C(=O)Nc3ccc(F)cc3)COC2)cc1)c1cccc(Cl)c1,,,250,,420,
